In patent US20240025884A1 (Dong-A ST Co., Ltd., priority 2022, published 2024):

Molecular target: GCN2 (Homo sapiens (Human), UniProt Q9P2K8)
Test: GCN2 Biochemical Assay (TR-FRET, GFP-eIF2S1 substrate phosphorylation)
Conditions: read-out: IC50 (GCN2 Inhibitory Activity)
Description: Experimental Example 1: GCN2 Biochemical Assay
An inhibitory effect of the inventive compound on GCN2 was identified as follows.
384-well (Greiner #784075) (or 1536-well [Greiner #782075]) plates containing 60 nl (or 20 nl for 1536-well) of compound in 100% DMSO (10 concentrations serially diluted 3.16-fold) were prepared. Two copies of plates were used—one for the GCN2 assay and a second for an artifact plate. Working reagents were prepared as follows—reaction buffer: Tris pH 7.5 20 mM, MgCl2 5 mM, DTT 1 mM, Brij-35 0.005%, EGTA 0.5 mM in water; 2× enzyme solution: GCN2 (produced in-house) 1.6 nM in reaction buffer; 2× substrate solution: GFP-eIFS1 (Thermo Fisher Scientific, PV4809) 50 nM, ATP 0.2 mM, tRNA 0.4 mg/ml in reaction buffer; p-GFP-eIF2S1 (artifact) solution: p-GFP-eIFS1 (produced by incubation of 100 nM GFP-eIF2S1 in reaction buffer with 100 uM ATP and 1 nM PERK KD enzyme for 3 hr at room temperature) 2 nM in reaction buffer; 3× stop/antibody solution: p-GFP-EIF2S1 Th-Ab (Thermo Fisher Scientific, PV4816) 6 nM, AZ13933939 3 uM, BSA 3% in reaction buffer. Reagents were loaded onto a liquid dispenser (Certus FLEX, Trajan Scientific and Medical), and 3 ul (1 ul for 1536-well) of 2× enzyme solution, followed by 3 ul (1 ul for 1536-well) of 2× substrate solution was added to the plates. When small numbers of plates were processed, the enzyme solution was added first to all plates, then the valve used for the substrate solution was primed immediately prior to use. Plates were tapped or spun 1 min/1K/RT to ensure proper mixing, followed by incubation at room temperature for 70 mins, covered/stacked in the dark. For the artifact plate, 6 ul of p-GFP-eIF2S1 solution was added prior to adding the stop/antibody solution. 3 ul (1 ul for 1536-well) of 3× stop/antibody solution was added to the plates, followed by a spin-down for 1 min/1K/RT, and incubation for 2-3 hr, sealed or covered with lids in the dark at room temperature. Plates were read on a plate reader (PHERAstar FSX, BMF Labtech) at Ex 340/Em 490/Em 520 nm.

GCN2, sequence (Q9P2K8 whole entry): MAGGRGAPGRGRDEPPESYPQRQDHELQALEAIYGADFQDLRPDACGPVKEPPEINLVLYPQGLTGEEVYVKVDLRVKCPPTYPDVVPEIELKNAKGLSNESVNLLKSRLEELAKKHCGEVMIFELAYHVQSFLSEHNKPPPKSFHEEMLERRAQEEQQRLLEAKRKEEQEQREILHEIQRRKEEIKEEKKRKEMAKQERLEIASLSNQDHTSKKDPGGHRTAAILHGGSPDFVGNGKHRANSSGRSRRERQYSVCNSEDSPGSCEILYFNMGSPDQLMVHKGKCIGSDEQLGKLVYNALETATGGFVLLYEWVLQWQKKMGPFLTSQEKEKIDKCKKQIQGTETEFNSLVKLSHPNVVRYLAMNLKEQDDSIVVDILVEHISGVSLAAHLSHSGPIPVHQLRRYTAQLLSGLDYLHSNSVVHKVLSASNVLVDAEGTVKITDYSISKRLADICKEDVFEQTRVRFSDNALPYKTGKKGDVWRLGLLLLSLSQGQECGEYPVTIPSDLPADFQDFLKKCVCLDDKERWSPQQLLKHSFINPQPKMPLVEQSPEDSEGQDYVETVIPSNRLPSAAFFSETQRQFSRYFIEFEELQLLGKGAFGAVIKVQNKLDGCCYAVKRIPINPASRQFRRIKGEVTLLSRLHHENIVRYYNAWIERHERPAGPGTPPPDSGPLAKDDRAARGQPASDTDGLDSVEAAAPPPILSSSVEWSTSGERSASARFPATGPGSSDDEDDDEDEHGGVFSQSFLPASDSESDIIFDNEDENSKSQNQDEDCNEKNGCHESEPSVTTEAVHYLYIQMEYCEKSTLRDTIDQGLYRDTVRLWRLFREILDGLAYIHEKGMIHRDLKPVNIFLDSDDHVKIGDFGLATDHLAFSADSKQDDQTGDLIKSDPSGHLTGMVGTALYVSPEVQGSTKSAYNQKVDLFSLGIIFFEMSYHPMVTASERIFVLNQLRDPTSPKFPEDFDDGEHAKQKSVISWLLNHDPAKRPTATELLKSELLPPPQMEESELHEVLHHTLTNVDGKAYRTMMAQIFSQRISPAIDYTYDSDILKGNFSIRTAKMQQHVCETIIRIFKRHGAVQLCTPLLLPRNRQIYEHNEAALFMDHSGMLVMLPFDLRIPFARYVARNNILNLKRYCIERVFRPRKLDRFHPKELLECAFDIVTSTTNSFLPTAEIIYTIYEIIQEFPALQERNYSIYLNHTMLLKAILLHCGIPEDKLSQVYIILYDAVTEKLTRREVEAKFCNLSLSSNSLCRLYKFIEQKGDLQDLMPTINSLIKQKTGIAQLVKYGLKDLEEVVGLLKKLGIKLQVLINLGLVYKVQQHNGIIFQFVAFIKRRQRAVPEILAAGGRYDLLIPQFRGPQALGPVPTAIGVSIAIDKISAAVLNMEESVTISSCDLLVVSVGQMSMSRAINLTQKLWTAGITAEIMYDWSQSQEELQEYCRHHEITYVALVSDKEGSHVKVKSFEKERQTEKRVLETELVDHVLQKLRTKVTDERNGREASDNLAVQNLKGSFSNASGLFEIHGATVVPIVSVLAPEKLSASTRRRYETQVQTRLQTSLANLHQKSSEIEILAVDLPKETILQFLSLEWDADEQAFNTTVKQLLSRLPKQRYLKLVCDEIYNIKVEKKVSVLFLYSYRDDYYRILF

IC50 [nM] | SMILES
10 to 100 | Cc1cnc(Nc2cc(C)n(C)n2)nc1-c1c[nH]c2c(NC(=O)CN3CCC(Oc4cc(C(F)(F)F)n(C)n4)C3)cccc12 (stereo in doubt) [Example 117, (R)-N-(3-(2-((1,5-dimethyl-1H-pyrazol-3-yl)amino)-5-methylpyrimidin-4-yl)-1H-indol-7-yl)-2-(3-((1-methyl-5-(trifluoromethyl)-1H-pyrazol-3-yl)oxy)pyrrolidin-1-yl)acetamide]
100 to 1000 | Cc1cnc(Nc2cc(C)n(C)n2)nc1-c1c[nH]c2c(NC(=O)CN3CC[C@H](Oc4cnc(-c5ccccc5)nc4)C3)cccc12 (stereo in doubt) [Example 257, N-(3-(2-((1,5-dimethyl-1H-pyrazol-3-yl)amino)-5-methylpyrimidin-4-yl)-1H-indol-7-yl)-2-(3-((2-phenylpyrimidin-5-yl)oxy)pyrrolidin-1-yl)acetamide]
10 to 100 | Cc1cc(Nc2ncc(C3CC3)c(-c3c[nH]c4c(NC(=O)CN5CC[C@H](Oc6ccnc(NC7CC7)n6)C5)cccc34)n2)nn1C [Example 12, (S)-N-(3-(5-cyclopropyl-2-((1,5-dimethyl-1H-pyrazol-3-yl)amino)pyrimidin-4-yl)-1H-indol-7-yl)-2-(3-((2-(cyclopropylamino)pyrimidin-4-yl)oxy)pyrrolidin-1-yl)acetamide]
< 10 | COc1cnc(Nc2cc(C)n(C)n2)nc1-c1c[nH]c2c(NC(=O)CN3CC[C@H](Oc4ccnc(NC5CC5)n4)C3)cccc12 [Example 13, (S)-2-(3-((2-(cyclopropylamino)pyrimidin-4-yl)oxy)pyrrolidin-1-yl)-N-(3-(2-((1,5-dimethyl-1H-pyrazol-3-yl)amino)-5-methoxypyrimidin-4-yl)-1H-indol-7-yl)acetamide]
< 10 | COc1cnc(Nc2cc(C)n(C)n2)nc1-c1c[nH]c2c(NC(=O)CN3CC[C@H](Oc4cnnc(NC5CC5)n4)C3)cccc12 [Example 14, (S)-2-(3-((3-(cyclopropylamino)-1,2,4-triazin-5-yl)oxy)pyrrolidin-1-yl)-N-(3-(2-((1,5-dimethyl-1H-pyrazol-3-yl)amino)-5-methoxypyrimidin-4-yl)-1H-indol-7-yl)acetamide]
< 10 | Cc1cnc(Nc2cc3n(n2)CCC3)nc1-c1c[nH]c2c(NC(=O)CN3CC[C@H](Oc4ccncn4)C3)cccc12 [Example 15, (S)-N-(3-(2-((5,6-dihydro-4H-pyrrolo[1,2-b]pyrazol-2-yl)amino)-5-methylpyrimidin-4-yl)-1H-indol-7-yl)-2-(3-(pyrimidin-4-yloxy)pyrrolidin-1-yl)acetamide]
< 10 | Cc1cnc(Nc2cc3n(n2)CCC3)nc1-c1c[nH]c2c(NC(=O)CN3CC[C@H](Oc4ccnc(NC5CC5)n4)C3)cccc12 [Example 16, (S)-2-(3-((2-(cyclopropylamino)pyrimidin-4-yl)oxy)pyrrolidin-1-yl)-N-(3-(2-((5,6-dihydro-4H-pyrrolo[1,2-b]pyrazol-2-yl)amino)-5-methylpyrimidin-4-yl)-1H-indol-7-yl)acetamide]
< 10 | Cc1cnc(Nc2cc(C)n(CCN3CCOCC3)n2)nc1-c1c[nH]c2c(NC(=O)CN3CC[C@H](Oc4ccnc(NC5CC5)n4)C3)cccc12 [Example 17, (S)-2-(3-((2-(cyclopropylamino)pyrimidin-4-yl)oxy)pyrrolidin-1-yl)-N-(3-(5-methyl-2-((5-methyl-1-(2-morpholinoethyl)-1H-pyrazol-3-yl)amino)pyrimidin-4-yl)-1H-indol-7-yl)acetamide]
10 to 100 | Cc1cnc(Nc2cc(C)n(C)n2)nc1-c1c[nH]c2c(NC(=O)C(=O)N3CC[C@H](Oc4ccncc4)C3)cccc12 [Example 18, (S)-N-(3-(2-((1,5-dimethyl-1H-pyrazol-3-yl)amino)-5-methylpyrimidin-4-yl)-1H-indol-7-yl)-2-ox0-2-(3-(pyridin-4-yloxy)pyrrolidin-1-yl)acetamide]
10 to 100 | Cc1cnc(Nc2cc(C)n(C)n2)nc1-c1c[nH]c2c(NC(=O)C(=O)N3CCC(Oc4ccccn4)C3)cccc12 (stereo not drawn) [Example 19]
< 10 | Cc1cnc(Nc2cc(C)n(C)n2)nc1-c1c[nH]c2c(NC(=O)C(=O)N3CC[C@H](Oc4ccnc(NC5CC5)n4)C3)cccc12 [Example 20, (S)-2-(3-((2-(cyclopropylamino)pyrimidin-4-yl)oxy)pyrrolidin-1-yl)-N-(3-(2-((1,5-dimethyl-1H-pyrazol-3-yl)amino)-5-methylpyrimidin-4-yl)-1H-indol-7-yl)-2-oxoacetamide]

Continued, molecule first:

SMILES | IC50 [nM]
CCc1cnc(Nc2cc(C)n(C)n2)nc1-c1c[nH]c2c(NC(=O)CN3CC[C@H](Oc4ccnc(NC5CC5)n4)C3)cccc12 (stereo in doubt) [Example 11, (3-((2-(cyclopropylamino)pyrimidin-4-yl)oxy)pyrrolidin-1-yl)-N-(3-(2-((1,5-dimethyl-1H-pyrazol-3-yl)amino)-5-ethylpyrimidin-4-yl)-1H-indol-7-yl)acetamide] | < 10
Cc1cnc(Nc2cc(C)n(C)n2)nc1-c1c[nH]c2c(NC(=O)CN3CC[C@H](Oc4ccnc(NC5CC5)n4)C3)c(F)ccc12 [Example 1, (S)-2-(3-((2-(cyclopropylamino)pyrimidin-4-yl)oxy)pyrrolidin-1-yl)-N-(3-(2-((1,5-dimethyl-1H-pyrazol-3-yl)amino)-5-methylpyrimidin-4-yl)-6-fluoro-1H-indol-7-yl)acetamide] | < 10
Cc1cnc(Nc2cc(C)n(C)n2)nc1-c1c[nH]c2c(NC(=O)CN3CC[C@H](Oc4ccnc(NC5CC5)n4)C3)cc(N)cc12 [Example 2, (S)-N-(5-amino-3-(2-((1,5-dimethyl-1H-pyrazol-3-yl)amino)-5-methylpyrimidin-4-yl)-1H-indol-7-yl)-2-(3-((2-(cyclopropylamino)pyrimidin-4-yl)oxy)pyrrolidin-1-yl)acetamide] | 10 to 100
Cc1cnc(Nc2cc(C)n(C)n2)nc1-c1c[nH]c2c(NC(=O)CN3CC[C@H](Oc4ccnc(NC5CC5)n4)C3)c(N(C)C)ccc12 [Example 3, (S)-2-(3-((2-(cyclopropylamino)pyrimidin-4-yl)oxy)pyrrolidin-1-yl)-N-(3-(2-((1,5-dimethyl-1H-pyrazol-3-yl)amino)-5-methylpyrimidin-4-yl)-6-(dimethylamino)-1H-indol-7-yl)acetamide] | < 10
COc1ccc2c(-c3nc(Nc4cc(C)n(C)n4)ncc3C)c[nH]c2c1NC(=O)CN1CC[C@H](Oc2ccnc(NC3CC3)n2)C1 [Example 4, (S)-2-(3-((2-(cyclopropylamino)pyrimidin-4-yl)oxy)pyrrolidin-1-yl)-N-(3-(2-((1,5-dimethyl-1H-pyrazol-3-yl)amino)-5-methylpyrimidin-4-yl)-6-methoxy-1H-indol-7-yl)acetamide] | < 10
Cc1cnc(Nc2cc(C)n(C)n2)nc1C1=CCc2c1ccc(N(C)C)c2NC(=O)CN1CC[C@H](Oc2ccnc(NCC(F)(F)F)n2)C1 [Example 5, (S)-N-(3-(2-((1,5-dimethyl-1H-pyrazol-3-yl)amino)-5-methylpyrimidin-4-yl)-6-(dimethylamino)-1H-inden-7-yl)-2-(3-((2-((2,2,2-trifluoroethyl)amino)pyrimidin-4-yl)oxy)pyrrolidin-1-yl)acetamide] | < 10
COc1ccc2c(-c3nc(Nc4cc(C)n(C)n4)ncc3C)c[nH]c2c1NC(=O)CN1CC[C@H](Oc2ccnc(NCC(F)(F)F)n2)C1 [Example 6, (S)-N-(3-(2-((1,5-dimethyl-1H-pyrazol-3-yl)amino)-5-methylpyrimidin-4-yl)-6-methoxy-1H-indol-7-yl)-2-(3-((2-((2,2,2-trifluoroethyl)amino)pyrimidin-4-yl)oxy)pyrrolidin-1-yl)acetamide] | 10 to 100
Cc1cc(Nc2nccc(-c3c[nH]c4c(NC(=O)CN5CC[C@H](Oc6cc(NC7CC7)ncn6)C5)cccc34)n2)nn1C [Example 7, (S)-2-(3-((6-(cyclopropylamino)pyrimidin-4-yl)oxy)pyrrolidin-1-yl)-N-(3-(2-((1,5-dimethyl-1H-pyrazol-3-yl)amino)pyrimidin-4-yl)-1H-indol-7-yl)acetamide] | < 10
Cc1cc(Nc2ncc(F)c(-c3c[nH]c4c(NC(=O)CN5CC[C@H](Oc6ccncc6)C5)cccc34)n2)nn1C [Example 8, (S)-N-(3-(2-((1,5-dimethyl-1H-pyrazol-3-yl)amino)-5-fluoropyrimidin-4-yl)-1H-indol-7-yl)-2-(3-(pyridin-4-yloxy)pyrrolidin-1-yl)acetamide] | < 10
Cc1cc(Nc2ncc(Cl)c(-c3c[nH]c4c(NC(=O)CN5CC[C@H](Oc6ccncc6)C5)cccc34)n2)nn1C [Example 9, (S)-N-(3-(5-chloro-2-((1,5-dimethyl-1H-pyrazol-3-yl)amino)pyrimidin-4-yl)-1H-indol-7-yl)-2-(3-(pyridin-4-yloxy)pyrrolidin-1-yl)acetamide] | < 10
